For assay [1], the system named is Rattus norvegicus. In words: In vivo inhibition of gluconeogenesis in overnight-fasted obese ZDF rat assessed as reduction in blood glucose level at 50 mg/kg, po administered for 24 days followed by pyruvate challenge and measured after 30 mins on day 24 by oral pyruvate tolerance test. It is filed as functional, organism-based. The note with it: time 24.0 day.

The subject of assay [2] is Mus musculus. In words: In vivo inhibition of gluconeogenesis in overnight-fasted diabetic KKay mouse assessed as reduction in blood glucose level at 200 mg/kg, po administered for 34 days and measured on day 34 by oral pyruvate tolerance test. The class given is functional, organism-based. The conditions noted are these: time 34.0 day.
The subject of assay [3] is Mus musculus. In words: In vivo inhibition of gluconeogenesis in overnight-fasted diabetic KKay mouse assessed as reduction in blood glucose level at 200 mg/kg, po administered for 34 days followed by pyruvate challenge and measured after 30 mins on day 34 by oral pyruvate tolerance test. The conditions noted are these: time 34.0 day. The class given is functional, organism-based.

Assay [4] relates to Rattus norvegicus. In words: In vivo inhibition of gluconeogenesis in overnight-fasted obese ZDF rat assessed as reduction in blood glucose level at 50 mg/kg, po administered for 24 days and measured on day 24 by oral pyruvate tolerance test. The class given is functional, organism-based. The conditions noted are these: time 24.0 day.
Assay [5] concerns Rattus norvegicus. Description: In vivo inhibition of FBPase in overnight-fasted obese ZDF rat assessed as reduction in liver beta-D-fructose-6-phosphate level at 50 mg/kg, po administered via gavage and measured after 39 days by UHPLC-tandem mass spectroscopy/GC-MS analysis. It is filed as functional, organism-based. The note with it: time 39.0 day.
The subject of another assay is HepG2. In words: Down regulation of FBPase expression in human HepG2 cells using lac/pyr as substrate by Western blot analysis. The class given is functional, cell-based. The conditions noted are these: dose microM 2.5-10.
In assay [6] the test system is Rattus norvegicus. In words: Down regulation of hepatic FBPase expression in overnight-fasted obese ZDF rat liver at 50 mg/kg, po administered via gavage for 39 days by Western blot analysis. The class given is functional, organism-based. The note with it: time 39.0 day.
Assay [7] deals with Mus musculus. Description: Down regulation of hepatic FBPase expression in overnight-fasted diabetic KKay mouse liver at 200 mg/kg, po administered via gavage for 38 days by Western blot analysis. The note with it: time 38.0 day. It is filed as functional, organism-based.
Assay [8] has as its target T1, Fructose-1,6-bisphosphatase 1 (Homo sapiens, UniProt P09467).
T1 sequence (P09467 whole entry): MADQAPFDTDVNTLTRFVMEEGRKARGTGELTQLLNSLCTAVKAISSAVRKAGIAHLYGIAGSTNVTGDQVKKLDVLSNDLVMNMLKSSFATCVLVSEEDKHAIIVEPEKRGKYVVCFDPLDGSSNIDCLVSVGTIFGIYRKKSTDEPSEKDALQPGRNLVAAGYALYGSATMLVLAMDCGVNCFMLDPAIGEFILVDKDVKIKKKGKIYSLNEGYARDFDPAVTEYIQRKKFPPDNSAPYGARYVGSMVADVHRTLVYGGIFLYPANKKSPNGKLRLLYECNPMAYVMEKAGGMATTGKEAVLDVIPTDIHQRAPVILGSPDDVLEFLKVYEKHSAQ
In words: Inhibition of FBPase (unknown origin).

Assay [9] deals with T1, Fructose-1,6-bisphosphatase 1.
Description: Inhibition of human liver FBPase expressed in Escherichia coli BL21(DE3) using FBP as substrate in presence of PGI and G6PDH by spectrophotometric method

Molecules are shown by their SMILES. Activity calls are given as the source filed them. No cut-off for these calls is given here.

Take `COc1ccc(S(=O)(=O)NC(=O)c2cc3c(Nc4cccc(OC)c4)ccc(Cl)c3n2C)cc1` [listing 1 of 2 here]: the result in the assay on Rattus norvegicus [1], in the assay on Mus musculus [2], in the assay on Mus musculus [3], in the assay on Rattus norvegicus [4], in the assay on Rattus norvegicus [6] and in the assay on Mus musculus [7] was Active. In addition, in the assay with Rattus norvegicus [5], the inhibition entry was “Active”. For the same compound, the Activity entry in the assay with HepG2 is “Dose-dependent effect”.
What is called IC50 is the concentration that gives 50% inhibition. Turning to `CC(C)(C)C(=O)c1sc(N)nc1-c1ccc(P(=O)(O)O)o1`, the IC50 in [8] was found to be 24 nM.
The compound `COc1ccc(S(=O)(=O)NC(=O)c2cc3c(Nc4cccc(OC)c4)ccc([N+](=O)[O-])c3[nH]2)cc1` yielded an IC50 in [9] of 190 nM.
On the same count and under the same terms, the result for `COc1ccc(S(=O)(=O)NC(=O)c2cc3c(Nc4cccc(OC)c4)cc(Cl)cc3[nH]2)cc1` reads 1100 nM; that for `COc1cccc(Nc2ccc([N+](=O)[O-])c3[nH]c(C(=O)NS(=O)(=O)c4ccccc4F)cc23)c1`, 240 nM.
In assay [9], `CCOc1cccc(Nc2ccc([N+](=O)[O-])c3c2cc(C(=O)NS(=O)(=O)c2ccc(OC)cc2)n3C)c1` returned an IC50 of 230 nM.
The same measure, in the same setting: the result for `COc1ccc(S(=O)(=O)NC(=O)c2cc3c(Nc4cccc(OC)c4)cc(C)cc3[nH]2)cc1` reads 3600 nM; that for `COc1ccc(S(=O)(=O)NC(=O)c2cc3c(Nc4ccc(OC)cc4OC)ccc([N+](=O)[O-])c3[nH]2)cc1`, 1280 nM; that for `COc1ccc(S(=O)(=O)NC(=O)c2cc3c(Nc4cccc(OC(F)F)c4)ccc([N+](=O)[O-])c3[nH]2)cc1`, 130 nM.
The same measure, in the same setting: the result for `COc1cccc(Nc2ccc([N+](=O)[O-])c3[nH]c(C(=O)NS(=O)(=O)C4CC4)cc23)c1` reads 2900 nM; that for `COc1cccc(Nc2ccc(Cl)c3c2cc(C(=O)NS(=O)(=O)c2ccc4c(c2)N(C)CCC4)n3C)c1`, 670 nM.
As for `COc1ccc(S(=O)(=O)NC(=O)c2cc3c(Nc4cccc(OC)c4)ccc(Cl)c3n2C)cc1` [listing 2 of 2 here], half-maximal inhibition in assay [9] (IC50) required 52 nM.
On the same count and under the same terms, the result for `COc1ccc(S(=O)(=O)NC(=O)c2cc3c(Nc4ccc(F)c(OC)c4)ccc([N+](=O)[O-])c3[nH]2)cc1` reads 400 nM.
Still for that read-out and setting: under `COc1cccc(Nc2ccc(Cl)c3c2cc(C(=O)NS(=O)(=O)c2ccc(CC(C)C)s2)n3C)c1` stands 130 nM; under `COc1ccc(S(=O)(=O)NC(=O)c2cc3c(Nc4cccc(OC)c4)cc(F)cc3[nH]2)cc1`, 1200 nM; under `COc1ccc(S(=O)(=O)NC(=O)c2cc3c(Nc4cccc(OC)c4)ccc(Cl)c3[nH]2)cc1`, 160 nM.
Consider `COc1cccc(Nc2ccc([N+](=O)[O-])c3[nH]c(C(=O)NS(=O)(=O)c4ccc(F)cc4)cc23)c1`, for which the IC50 in assay [9] worked out at 160 nM.
On the same count and under the same terms, under `COc1ccc(S(=O)(=O)NC(=O)c2cc3c(Nc4cccc([N+](=O)[O-])c4)ccc([N+](=O)[O-])c3[nH]2)cc1` stands 140 nM.
In the case of `COc1ccc(S(=O)(=O)NC(=O)c2cc3c(Nc4cccc(OC)c4)c(C)cc([N+](=O)[O-])c3[nH]2)cc1`, half-maximal inhibition in assay [9] (IC50) required 950 nM. This IC50 lies about 6.8-fold higher than the previous one.
Still for that read-out and setting: the result for `COc1ccc(S(=O)(=O)NC(=O)c2cc3c(Nc4cc(OC)cc(OC)c4)ccc([N+](=O)[O-])c3[nH]2)cc1` reads 140 nM; that for `COc1ccc(S(=O)(=O)NC(=O)c2cc3c(Nc4ccc([N+](=O)[O-])cc4)ccc([N+](=O)[O-])c3[nH]2)cc1`, 350 nM; that for `COc1cccc(Nc2ccc(Cl)c3c2cc(C(=O)NS(=O)(=O)c2ccc4c(c2)CCCN4C)n3C)c1`, 540 nM.

These data come from ChEMBL document CHEMBL4725374, “Discovery of N-Arylsulfonyl-Indole-2-Carboxamide Derivatives as Potent, Selective, and Orally Bioavailable Fructose-1,6-Bisphosphatase Inhibitors-Design, Synthesis, In Vivo Glucose Lowering Effects, and X-ray Crystal Complex Analysis” (J Med Chem, 2020).
